Source: patent US9238639B2, “Aromatic ring compound” (TAKEDA PHARMACEUTICAL COMPANY LIMITED, priority 2012, dated 2016)

Each molecule was assayed against T1, human GOAT (Homo sapiens, UniProt Q96T53) (assay: GOAT enzyme activity measurement by HTRF method (human GOAT-expressing microsome fraction)). Details: 10 μM compound; human GOAT-expressing Sf9 microsome fraction; octanoyl-CoA and Ghrelin-biotin substrates; 0% control without compound, 100% control without enzyme.
T1 construct: made in house; host or cells: Sf9 insect cells (BacToBac baculovirus, pFastBac1 vector); microsome fraction
T1 sequence (Q96T53 1-435): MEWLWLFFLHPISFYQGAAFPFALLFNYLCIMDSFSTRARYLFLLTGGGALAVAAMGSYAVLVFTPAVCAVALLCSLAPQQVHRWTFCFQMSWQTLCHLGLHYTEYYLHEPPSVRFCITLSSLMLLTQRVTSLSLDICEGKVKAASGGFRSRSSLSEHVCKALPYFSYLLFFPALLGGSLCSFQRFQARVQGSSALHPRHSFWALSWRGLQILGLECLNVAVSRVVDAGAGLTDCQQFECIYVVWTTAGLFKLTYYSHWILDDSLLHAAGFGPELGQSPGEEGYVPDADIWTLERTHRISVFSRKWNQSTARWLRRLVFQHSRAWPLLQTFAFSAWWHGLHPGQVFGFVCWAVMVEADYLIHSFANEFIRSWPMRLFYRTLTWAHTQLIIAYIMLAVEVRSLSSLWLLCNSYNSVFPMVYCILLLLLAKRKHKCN
Type: biochemical
Experimental: Human GOAT (Accession NO: EU518495) cDNA was amplified by PCR including reaction of (1) 98° C., 1 min, (2) 35 repeats of 98° C., 10 sec·65° C., 15 sec·72° C., 80 sec, and (3) 72° C., 5 min, using human stomach cDNA library (Takara Bio) as a template and Pyrobest DNA Polymerase (Takara Bio). The amplified fragment was treated with restriction enzymes, inserted into Stu I/Not I sites of pFastBacl (Invitrogen) by using Ligation High (TOYOBO), and transfected into ECOS JM109 (Nippon Gene) to construct pFB/hGOAT.
Production of Baculovirus and Preparation of Insect Cell Microsome Fraction
For preparation of baculovirus from pFB/hGOAT, BacToBac baculovirus expression system (Invitrogen) was used. The virus titer was measured by Real-Time PCR using SYBR Green (Takara Bio). Sf9 cells were infected with the obtained baculovirus at Multiplicity of Infection (MOI)=0.2, and cultured for 70 hr. The Sf9 cells were recovered, suspended in a suspension buffer (TBS (0.3 M NaCl), 1 mM DTT, 1 mM EDTA, Complete (Roche) (1 tablet/50 mL)), and the cells were disrupted twice on ice at 20000 rpm, 30 sec using a polytron homogenizer. The cell disruption solution was centrifuged at 1000 rpm for 10 min at 4° C., the supernatant was further ultracentrifuged at 40000 rpm for 30 min at 4° C. and the precipitate was recovered. The obtained precipitate was suspended in the suspension buffer used above to give a human GOAT-expressing microsome fraction. The protein level was measured using BCA Protein assay Reagent (PIERCE).
Enzyme Activity Measurement by HTRF Method
A compound solution (2 μL) diluted with an assay buffer containing 50 mM Tris-HCl (pH 7.5), 0.5% TWEEN20, and Complete to 15% DMSO and 90 μg/mL human GOAT-expressing microsome fraction (2 μL) were incubated at room temperature for 20 min, after which a substrate mixed solution (2 μL) containing 30 μM octanoyl-CoA (CHEM-IMPLEX) and 3 μM Ghrelin-biotin ([…]epsilon aminocaproic acid-biotin (Greiner Coutom synthesis)) was added to 384 white small volume plate (Greiner). After reaction for 20 min, 2 μL of citrate buffer (pH3) (mixed solution of 0.1 M citric acid (39.8 mL) and 0.2 M Na2HPO4 (10.2 mL)), 2 μL of 25 nM anti-active ghrelin antibody (produced in mouse), 5 μL of Eu(K)-Anti Mouse IgG Pab (Cis Bio) 100-fold diluted with HTRF detection buffer (Cis Bio) and 5 μL of streptavidin-Xlent (Cis Bio) 66.6-fold diluted with HTRF detection buffer (Cis Bio) were added. After incubation at room temperature for 1 hr or longer, the fluorescence values at 620 nm and 665 nm were measured by Envision (PerkinElmer). The data was calculated [(665 nm signal/620 nm signal)×10^4], and the inhibitory activity against human GOAT was shown by the data where 0% control was without compound, and 100% control was without enzyme.

Structure (SMILES)	inhibition at 10 µM
COC(=O)Cc1csc2c(Cl)c(OCc3cc(C(F)(F)F)nn3C)cc(Cl)c12 [Example 27, Methyl(4,7-dichloro-6-((1-methyl-3-(trifluoromethyl)-1H-pyrazol-5-yl)methoxy)-1-benzothiophen-3-yl)acetate]	92.7%
COC(=O)Cc1csc2cc(OCc3cc(C(F)(F)F)nn3C)cc(Cl)c12 [Example 21, Methyl(4-chloro-6-((1-methyl-3-(trifluoromethyl)-1H-pyrazol-5-yl)methoxy)-1-benzothiophen-3-yl)acetate]	100%
Cn1nc(C(F)(F)F)cc1COc1cc(Cl)c2c(CC(=O)O)csc2c1F [Example 38, (4-Chloro-7-fluoro-6-((1-methyl-3-(trifluoromethyl)-1H-pyrazol-5-yl)methoxy)-1-benzothiophen-3-yl)acetic acid]	107%
COC(=O)Cc1csc2cc(OCc3ccc(C(F)(F)F)nc3C)cc(C)c12 [Example 9, Methyl(4-methyl-6-((2-methyl-6-(trifluoromethyl)pyridin-3-yl)methoxy)-1-benzothiophen-3-yl)acetate]	93.8%
COC(=O)Cc1csc2cc(OCc3cc(C(F)(F)F)nn3C)cc(C)c12 [Example 11, Methyl(4-methyl-6-((1-methyl-3-(trifluoromethyl)-1H-pyrazol-5-yl)methoxy)-1-benzothiophen-3-yl)acetate]	95.2%
COC(=O)Cc1csc2cc(OCc3ccc(C)nc3C)cc(Cl)c12 [Example 13, Methyl(4-chloro-6-((2,6-dimethylpyridin-3-yl)methoxy)-1-benzothiophen-3-yl)acetate]	96.5%
Cc1nc(C(F)(F)F)ccc1COc1cc(C)c2c(CC(=O)O)csc2c1F [Example 36, (7-Fluoro-4-methyl-6-((2-methyl-6-(trifluoromethyl)pyridin-3-yl)methoxy)-1-benzothiophen-3-yl)acetic acid]	106%
COC(=O)Cc1csc2cc(OCc3cc(C)nn3C)cc(Cl)c12 [Example 25, Methyl(4-chloro-6-((1,3-dimethyl-1H-pyrazol-5-yl)methoxy)-1-benzothiophen-3-yl)acetate]	97.4%
COC(=O)Cc1csc2cc(OCc3ccc(C(F)(F)F)nc3C)cc(Cl)c12 [Example 15, Methyl(4-chloro-6-((2-methyl-6-(trifluoromethyl)pyridin-3-yl)methoxy)-1-benzothiophen-3-yl)acetate]	91.6%
Cc1ccc(COc2cc(C(F)(F)F)c3c(CC(=O)O)csc3c2)c(C)n1 [Example 31, (6-((2,6-Dimethylpyridin-3-yl)methoxy)-4-(trifluoromethyl)-1-benzothiophen-3-yl)acetic acid]	103%
COC(=O)Cc1csc2cc(OCc3ccc(Cl)cc3Cl)cc(C)c12 [Example 5, Methyl(6-((2,4-dichlorobenzyl)oxy)-4-methyl-1-benzothiophen-3-yl)acetate]	84.4%
Cc1cc(OCc2ccc(Cl)cc2Cl)cc2scc(CC(=O)O)c12 [Example 6, (6-((2,4-Dichlorobenzyl)oxy)-4-methyl-1-benzothiophen-3-yl)acetic acid]	103%
Cn1nc(C(F)(F)F)cc1COc1cc(C(F)(F)F)c2c(CC(=O)O)csc2c1 [Example 32, (6-((1-Methyl-3-(trifluoromethyl)-1H-pyrazol-5-yl)methoxy)-4-(trifluoromethyl)-1-benzothiophen-3-yl)acetic acid]	103%
COC(=O)Cc1csc2c(Cl)c(OCc3ccc(C(F)(F)F)nc3C)cc(Cl)c12 [Example 29, Methyl(4,7-dichloro-6-((2-methyl-6-(trifluoromethyl)pyridin-3-yl)methoxy)-1-benzothiophen-3-yl)acetate]	88.1%

Next, values leading:

inhibition at 10 µM	Structure (SMILES)
93.1%	Cc1nc(C(F)(F)F)ccc1COc1ccc2c(CC(=O)O)csc2c1 [Example 135, (6-((2-Methyl-6-(trifluoromethyl)pyridin-3-yl)methoxy)-1-benzothiophen-3-yl)acetic acid]
92.7%	COC(=O)Cc1coc2c(C)c(OCc3ccc(C)nc3C)cc(C)c12 [Example 43, Methyl(6-((2,6-dimethylpyridin-3-yl)methoxy)-4,7-dimethyl-1-benzofuran-3-yl)acetate]
86%	O=C(O)C[C@H]1COc2cc(OCc3ccc(Cl)cc3Cl)ccc21 [Example 263, ((3R)-6-((2,4-Dichlorobenzyl)oxy)-2,3-dihydro-1-benzofuran-3-yl)acetic acid]
81%	O=C(O)C1(CO)COc2cc(OCc3ccc(Cl)cc3Cl)ccc21 (centres unmarked) [Example 279, 6-((2,4-Dichlorobenzyl)oxy)-3-(hydroxymethyl)-2,3-dihydro-1-benzofuran-3-carboxylic acid]
106%	Cc1sc2cc(OCc3cc(C(F)(F)F)nn3C)cc(Cl)c2c1CC(=O)O [Example 307, (4-Chloro-2-methyl-6-((1-methyl-3-(trifluoromethyl)-1H-pyrazol-5-yl)methoxy)-1-benzothiophen-3-yl)acetic acid]
102%	Cc1ccc(COc2cc(C)c3c(CC(=O)O)coc3c2C)c(C)n1 [Example 44, (6-((2,6-Dimethylpyridin-3-yl)methoxy)-4,7-dimethyl-1-benzofuran-3-yl)acetic acid]
104%	Cn1nc(C(F)(F)F)cc1COc1cc(F)c2c(CC(=O)O)csc2c1 [Example 303, (4-Fluoro-6-((1-methyl-3-(trifluoromethyl)-1H-pyrazol-5-yl)methoxy)-1-benzothiophen-3-yl)acetic acid]
67%	O=C(O)Cc1csc2cc([S+]([O-])Cc3ccc(Cl)cc3Cl)ccc12 (centres unmarked) [Example 84, (6-((2,4-Dichlorobenzyl)sulfinyl)-1-benzothiophen-3-yl)acetic acid]
100%	Cc1nc(C(F)(F)F)ncc1COc1cc(C)c2c(CC(=O)O)csc2c1 [Example 140, (4-Methyl-6-((4-methyl-2-(trifluoromethyl)pyrimidin-5-yl)methoxy)-1-benzothiophen-3-yl)acetic acid]
96.2%	Cc1cc(OCc2ccc(Cl)cc2Cl)c(C)c2c1C(CC(=O)O)CO2 (centres unmarked) [Example 291, (6-((2,4-Dichlorobenzyl)oxy)-4,7-dimethyl-2,3-dihydro-1-benzofuran-3-yl)acetic acid]
73%	CC(=O)NCCc1coc2cc(OCc3ccc(Cl)cc3Cl)ccc12 [Example 196, N-(2-(6-(2,4-Dichlorobenzyloxy)-1-benzofuran-3-yl)ethyl)acetamide]
100%	O=C(O)Cc1coc2c(Cl)c(OCc3ccc(Cl)cc3Cl)ccc12 [Example 42, (7-Chloro-6-((2,4-dichlorobenzyl)oxy)-1-benzofuran-3-yl)acetic acid]
56%	CCOC(=O)CNC(=O)Cc1csc2cc(OCc3ccc(Cl)cc3Cl)ccc12 [Example 53, Ethyl N-((6-((2,4-dichlorobenzyl)oxy)-1-benzothiophen-3-yl)acetyl)glycinate]
86%	COC(=O)[C@H](CO)NC(=O)Cc1csc2cc(OCc3ccc(Cl)cc3Cl)ccc12 [Example 54, Methyl N-((6-((2,4-dichlorobenzyl)oxy)-1-benzothiophen-3-yl)acetyl)serinate]
99.3%	O=C(O)Cc1csc2cc(SCc3ccc(Cl)cc3Cl)ccc12 [Example 80, (6-((2,4-Dichlorobenzyl)sulfanyl)-1-benzothiophen-3-yl)acetic acid]
